Here are results for 24 molecules from patent US8461328B2, “Tricyclic heterocyclic compounds, compositions and methods of use thereof” (Genentech, Inc., priority 2010, dated 2013).

Common to all, as to type: biochemical
One experiment deals with T1, JAK2 (Homo sapiens, UniProt O60674).
T1 construct: made in house; host or cells: SF9 insect cells (baculovirus)
Briefly: JAK2 inhibition (Table 4). As to conditions: read-out: JAK2 Ki.

A further experiment concerns the target T2, JAK1 (Homo sapiens, UniProt P23458).
T2 construct: made in house; host or cells: SF9 insect cells (baculovirus)
The experiment is described as follows: JAK1 inhibition (Table 4). As to conditions: read-out: JAK1 Ki.

For the next experiment, the target named is T3, TYK2 (Homo sapiens, UniProt P29597).
T3 construct: made in house; host or cells: SF9 insect cells (baculovirus)
T3 sequence (P29597 873-1187): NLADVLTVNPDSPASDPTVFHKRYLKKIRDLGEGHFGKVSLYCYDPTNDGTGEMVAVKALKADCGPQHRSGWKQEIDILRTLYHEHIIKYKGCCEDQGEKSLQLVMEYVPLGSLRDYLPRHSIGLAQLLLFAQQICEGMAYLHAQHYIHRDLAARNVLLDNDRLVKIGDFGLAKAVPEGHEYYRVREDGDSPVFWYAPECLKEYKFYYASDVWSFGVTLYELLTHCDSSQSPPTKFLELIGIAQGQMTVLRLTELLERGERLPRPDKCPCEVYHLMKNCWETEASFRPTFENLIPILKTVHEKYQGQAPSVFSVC
Briefly: TYK2 inhibition (Table 4).

The next experiment deals with T4, JAK3 (Homo sapiens, UniProt P52333).
T4 construct: made in house; host or cells: SF9 insect cells (baculovirus)
The experiment is described as follows: JAK3 inhibition (Table 4). As to conditions: read-out: JAK3 Ki.

T1 sequence (O60674 812-1132): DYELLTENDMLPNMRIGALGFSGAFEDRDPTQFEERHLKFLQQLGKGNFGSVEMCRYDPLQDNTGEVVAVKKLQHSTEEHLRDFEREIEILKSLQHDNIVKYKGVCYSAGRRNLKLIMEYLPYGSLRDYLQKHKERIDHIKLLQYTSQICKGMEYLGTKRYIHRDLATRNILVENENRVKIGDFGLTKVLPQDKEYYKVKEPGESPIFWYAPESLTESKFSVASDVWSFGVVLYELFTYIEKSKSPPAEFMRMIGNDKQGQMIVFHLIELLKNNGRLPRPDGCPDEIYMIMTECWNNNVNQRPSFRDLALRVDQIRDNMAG
T4 sequence (P52333 783-1124): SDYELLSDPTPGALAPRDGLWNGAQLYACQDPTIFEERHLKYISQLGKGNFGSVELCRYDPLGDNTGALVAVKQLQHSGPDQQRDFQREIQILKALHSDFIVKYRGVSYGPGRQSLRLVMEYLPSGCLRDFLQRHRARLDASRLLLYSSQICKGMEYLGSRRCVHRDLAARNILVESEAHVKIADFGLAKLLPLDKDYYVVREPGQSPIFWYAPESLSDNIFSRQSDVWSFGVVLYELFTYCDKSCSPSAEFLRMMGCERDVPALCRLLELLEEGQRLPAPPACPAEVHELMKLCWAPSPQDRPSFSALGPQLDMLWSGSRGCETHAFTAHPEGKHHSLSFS
T2 sequence (P23458 852-1154): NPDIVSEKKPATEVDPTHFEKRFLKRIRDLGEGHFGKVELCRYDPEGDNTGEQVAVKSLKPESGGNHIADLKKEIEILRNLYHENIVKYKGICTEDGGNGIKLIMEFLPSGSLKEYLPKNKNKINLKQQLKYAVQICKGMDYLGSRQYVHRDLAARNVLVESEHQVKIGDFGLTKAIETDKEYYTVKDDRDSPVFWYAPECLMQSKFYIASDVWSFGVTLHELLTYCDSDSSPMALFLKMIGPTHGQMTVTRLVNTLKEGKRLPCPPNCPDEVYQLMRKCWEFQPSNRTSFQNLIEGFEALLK

With `C[C@@H](O)c1nc2cnc3[nH]ccc3c2n1C1CCCC(C#N)C1` (mixture of isomers) [Example 648, Racemic cis 3-[2-((R)-1-Hydroxy-ethyl)-6H-1,2,3,5,6-tetraaza-as-indacen-1-yl]-cyclohexanecarbonitrile], the Ki amounted to 72.4 nM at JAK2, 6.06 nM at JAK1, 26.8 nM on TYK2 and 119 nM on JAK3.

`CC1(n2cnc3cnc4[nH]ccc4c32)CCCN(C(=O)CC#N)C1` (racemic) [Example 706, 3-[3-Methyl-3-(6H-1,2,3,5,6-tetraaza-as-indacen-1-yl)-piperidin-1-yl]-3-oxo-propionitrile]: the Ki on JAK2 was 67.5 nM; on JAK1, 28.1 nM; at TYK2 it was 207 nM; on JAK3 it was 20.6 nM.

In the case of `c1nc2c([nH]1)CCC(n1cnc3cnc4[nH]ccc4c31)C2` (racemic) [Example 707, 1-(4,5,6,7-Tetrahydro-3H-benzoimidazol-5-yl)-1,6-dihydro-1,2,3,5,6-tetraaza-as-indacene], the inhibition constant (Ki) was determined as 123 nM at JAK2, 74.5 nM at JAK1, 391 nM at TYK2 and 112 nM on JAK3.

As to `FC(F)(F)CNC1CCC(n2cnc3cnc4[nH]ccc4c32)C1` (racemic) [Example 717, [3-(6H-1,3,5,6-tetraaza-as-indacen-1-yl)-cyclopentyl]-(2,2,2-trifluoro-ethyl)-amine], the Ki was 13.3 nM at JAK2, 6.11 nM on JAK1, 35 nM on TYK2 and 59.7 nM at JAK3.

Turning to `FC(F)(F)CNC1CCC(n2nnc3cnc4[nH]ccc4c32)C1` (racemic) [Example 718, [3-(6H-1,2,3,5,6-Pentaaza-as-indacen-1-yl)-cyclopentyl]-(2,2,2-trifluoro-ethyl)-amine], the Ki at JAK2 stood at 20.8 nM; on JAK1 it was 10.3 nM; on TYK2, 83.1 nM; at JAK3 it was 143 nM.

`Cc1nc2cnc3[nH]ccc3c2n1C1CCC(NS(C)(=O)=O)C1` (racemic) [Example 721, N-[3-(2-methyl-6H-1,3,5,6-tetraaza-as-indacen-1-yl)-cyclopentyl]-methanesulfonamide]: the Ki at JAK2 was found to be 4.04 nM; at JAK1, 1.09 nM; on TYK2 it was 13.4 nM; at JAK3 it was 14.2 nM.

Take `COCCNC1CCC(n2cnc3cnc4[nH]ccc4c32)C1` (racemic) [Example 726, (2-Methoxy-ethyl)-[3-(6H-1,3,5,6-tetraaza-as-indacen-1-yl)-cyclopentyl]-amine]: the Ki turned out to be 785 nM on JAK2, 176 nM at JAK1, 2220 nM at TYK2 and 754 nM at JAK3.

Turning to `Cc1nc2cnc3[nH]ccc3c2n1C1CCC(NC(=O)CC#N)C1` (racemic) [Example 728, 2-Cyano-N-[3-(2-methyl-6H-1,3,5,6-tetraaza-as-indacen-1-yl)-cyclopentyl]-acetamide], the Ki on JAK2 amounted to 6.24 nM; at JAK1 it was 1.52 nM; on TYK2 it was 22.4 nM; on JAK3, 2.26 nM.

As to `O=C(CC(F)(F)F)NC1CCC(n2cnc3cnc4[nH]ccc4c32)C1` (racemic) [Example 729, 3,3,3-Trifluoro-N-[3-(6H-1,3,5,6-tetraaza-as-indacen-1-yl)-cyclopentyl]-propionamide], the Ki at JAK2 was 9.79 nM; on JAK1, 2 nM; on TYK2, 48.9 nM; at JAK3 it was 13.5 nM.

With `Cc1nc2cnc3[nH]ccc3c2n1C1CCC(NC(=O)CC(F)(F)F)C1` (racemic) [Example 730, 3,3,3-Trifluoro-N-[3-(2-methyl-6H-1,3,5,6-tetraaza-as-indacen-1-yl)-cyclopentyl]-propionamide], the Ki was 7.24 nM at JAK2, 1.49 nM at JAK1, 21.1 nM at TYK2 and 1.87 nM at JAK3.

`O=C(CCC(F)(F)F)NC1CCC(n2cnc3cnc4[nH]ccc4c32)C1` (racemic) [Example 732, 4,4,4-Trifluoro-N-[3-(6H-1,3,5,6-tetraaza-as-indacen-1-yl)-cyclopentyl]-butyramide]: the Ki at JAK2 was 8.59 nM; on JAK1 it was 2.85 nM; at TYK2, 64.7 nM; at JAK3 it was 16.2 nM.

For the molecule `Cc1nc2cnc3[nH]ccc3c2n1C1CCC(NC(=O)N(C)CC(F)(F)F)C1` (racemic) [Example 736, 1-Methyl-3-[3-(2-methyl-6H-1,3,5,6-tetraaza-as-indacen-1-yl)-cyclopentyl]-1-(2,2,2-trifluoro-ethyl)-urea], the Ki on JAK2 came to 6.42 nM; at JAK1 it was 1.28 nM; on TYK2, 57.2 nM; on JAK3, 0.79 nM.

`CN(CC(F)(F)F)C(=O)NC1CCC(n2cnc3cnc4[nH]ccc4c32)C1` (racemic) [Example 737, 1-Methyl-3-[3-(6H-1,3,5,6-tetraaza-as-indacen-1-yl)-cyclopentyl]-1-(2,2,2-trifluoro-ethyl)-urea]: the Ki on JAK2 came to 8.44 nM; at JAK1, 4.53 nM; on TYK2, 107 nM; at JAK3, 7.19 nM.

With `COCCN(C)C(=O)NC1CCC(n2c(C)nc3cnc4[nH]ccc4c32)C1` (racemic) [Example 738, 1-(2-Methoxy-ethyl)-1-methyl-3-[3-(2-methyl-6H-1,3,5,6-tetraaza-as-indacen-1-yl)-cyclopentyl]-urea], the Ki turned out to be 49.1 nM at JAK2, 11.6 nM at JAK1, 351 nM at TYK2 and 80.9 nM on JAK3.

Take `COCCN(C)C(=O)NC1CCC(n2cnc3cnc4[nH]ccc4c32)C1` (racemic) [Example 739, 1-(2-Methoxy-ethyl)-1-methyl-3-[3-(6H-1,3,5,6-tetraaza-as-indacen-1-yl)-cyclopentyl]-urea]: the Ki on JAK2 worked out at 53.8 nM; on JAK1 it was 21.3 nM; on TYK2, 536 nM; at JAK3, 299 nM.

On to `OCCOc1nc2cnc3[nH]ccc3c2n1C1CCCOC1` (racemic) [Example 780, 2-[1-(Tetrahydro-pyran-3-yl)-1,6-dihydro-1,3,5,6-tetraaza-as-indacen-2-yloxy]-ethanol], for which the Ki was 41.2 nM at JAK2, 15.8 nM at JAK1, 109 nM at TYK2 and 74.2 nM on JAK3.

Take `CCN1CCC(n2c(CCNS(C)(=O)=O)nc3cnc4[nH]ccc4c32)C(F)(F)C1` (racemic) [Example 804, N-{2-[1-(1-Ethyl-3,3-difluoro-piperidin-4-yl)-1,6-dihydro-1,3,5,6-tetraaza-as-indacen-2-yl]-ethyl}-methanesulfonamide]: the Ki on JAK2 came out at 25.2 nM; on JAK1 it was 2.97 nM; on TYK2, 172 nM; at JAK3, 13.6 nM.

`COCC(=O)NCCc1nc2cnc3[nH]ccc3c2n1C1CCCOC1` (racemic) [Example 860, 2-Methoxy-N-{2-[1-(tetrahydro-pyran-3-yl)-1,6-dihydro-1,3,5,6-tetraaza-as-indacen-2-yl]-ethyl}-acetamide]: the Ki worked out at 296 nM at JAK2, 20.2 nM at JAK1, 806 nM on TYK2 and 561 nM on JAK3.

`O=C(Cc1nc2cnc3[nH]ccc3c2n1C1CC2CCC1C2)N1CCC(O)CC1` (racemic) [Example 869, 2-(1-Bicyclo[2.2.1]hept-2-yl-1,6-dihydro-1,3,5,6-tetraaza-as-indacen-2-yl)-1-(4-hydroxy-piperidin-1-yl)-ethanone]: the Ki is 17.9 nM at JAK2, 0.89 nM on JAK1, 10.1 nM at TYK2 and 8.69 nM at JAK3.

With `OC(c1nc2cnc3[nH]ccc3c2n1C1CCCCC1)C1CCOCC1` (racemic) [Example 875, (1-Cyclohexyl-1,6-dihydro-1,3,5,6-tetraaza-as-indacen-2-yl)-(tetrahydro-pyran-4-yl)-methanol], the inhibition constant Ki at JAK2 was 290 nM; on JAK1, 35 nM; on TYK2 it was 86.2 nM; on JAK3, 95.5 nM.

As for `OC(c1nc2cnc3[nH]ccc3c2n1C1CCCCC1)C1CC1` (racemic) [Example 940, (1-Cyclohexyl-1,6-dihydro-1,3,5,6-tetraaza-as-indacen-2-yl)-cyclopropyl-methanol], the Ki on JAK2 worked out at 31.3 nM; on JAK1, 0.96 nM; at TYK2, 8.91 nM; on JAK3 it was 25.5 nM.

In the case of `CCN1CCC(n2c(CO)nc3cnc4[nH]ccc4c32)C(F)(F)C1` (racemic) [Example 941, [1-(1-Ethyl-3,3-difluoro-piperidin-4-yl)-1,6-dihydro-1,3,5,6-tetraaza-as-indacen-2-yl]-methanol], the Ki on JAK2 turned out to be 10.6 nM; at JAK1 it was 1.8 nM; on TYK2, 14.7 nM; on JAK3, 5.97 nM.

On to `O=C(O)C1CC1C(O)c1nc2cnc3[nH]ccc3c2n1C1CCCCC1` (racemic) [Example 942, 2-[(1-Cyclohexyl-1,6-dihydro-1,3,5,6-tetraaza-as-indacen-2-yl)-hydroxy-methyl]-cyclopropanecarboxylic acid], for which the Ki on JAK2 was found to be 200 nM; at JAK1 it was 5.09 nM; on TYK2, 30.5 nM; on JAK3 it was 94.1 nM.

Consider `CS(=O)(=O)NCc1nc2cnc3[nH]ccc3c2n1C1CCNCC1(F)F` (racemic) [Example 945, N-[1-(3,3-Difluoro-piperidin-4-yl)-1,6-dihydro-1,3,5,6-tetraaza-as-indacen-2-ylmethyl]-methanesulfonamide], for which the Ki came out at 35 nM at JAK2, 3.19 nM on JAK1, 32.5 nM at TYK2 and 20.3 nM at JAK3.
